Test results: US10624947B2, “Bactericidal peptides and uses thereof” (INDIANA UNIVERSITY RESEARCH AND TECHNOLOGY CORPORATION, priority 2016, dated 2020)
Converted amounts (≈) assume the structure as drawn. Like-named read-outs stand apart in the source and are kept apart here. Each block holds one compound with its values, some of them ahead of it.

Columns and labels:
[1] = tested on: Pseudomonas aeruginosa; type: cell-based
[2] = tested on: human red blood cells (hRBCs); assay: Hemolytic activity; type: cell-based
[3] = tested on: Cultured human cells; assay: MTT cytotoxicity assay; type: cell-based; details: cultured human cells, compared to controls
[4] = tested on: Enterobacter cloacae
[5] = tested on: Escherichia coli
[6] = tested on: Klebsiella pneumoniae
[7] = tested on: Serratia marcescens
[8] = tested on: Klebsiella pneumoniae; assay: microbe, parasite or virus in culture

SMILES: CC[C@H](C)[C@H](NC(=O)[C@H](CCCCN)NC(=O)[C@H](CCC(=O)O)NC(=O)[C@H](CCCCN)NC(=O)[C@H](CO)NC(=O)[C@H](CCCCN)NC(=O)[C@H](CCCNC(=N)N)NC(=O)[C@H](Cc1ccccc1)NC(=O)[C@H](Cc1ccccc1)NC(=O)[C@H](CC(=O)O)NC(=O)CNC(=O)[C@H](CC(C)C)NC(=O)[C@@H](N)CC(C)C)C(=O)NCC(=O)N[C@@H](CCCCN)C(=O)N[C@@H](CCC(=O)O)C(=O)N[C@@H](Cc1ccccc1)C(=O)N[C@@H](CCCCN)C(=O)N[C@@H](CCCNC(=N)N)C(=O)N[C@H](C(=O)N[C@H](C(=O)N[C@@H](CCC(N)=O)C(=O)N[C@@H](CCCNC(=N)N)C(=O)N[C@H](C(=O)N[C@@H](CCCCN)C(=O)N[C@@H](CC(=O)O)C(=O)N[C@@H](Cc1ccccc1)C(=O)N[C@@H](CC(C)C)C(=O)N[C@@H](CCCNC(=N)N)C(=O)N[C@@H](CC(N)=O)C(=O)N[C@@H](CC(C)C)C(=O)N[C@H](C(=O)N1CCC[C@H]1C(=O)N[C@@H](CCCNC(=N)N)C(=O)N[C@H](C(=O)N[C@@H](CCC(=O)O)C(=O)N[C@@H](CO)C(=O)O)[C@@H](C)O)C(C)C)[C@@H](C)CC)C(C)C)[C@@H](C)CC [LL-37, reference compound]
Minimal inhibitory concentration ([1]; P. aeruginosa ATCC 27853): >32 µg/mL
Minimal inhibitory concentration ([1]; Table 10, Pseudomonas aeruginosa ATCC 27853): >32 µM
Minimal inhibitory concentration ([1]; Table 10, Pseudomonas aeruginosa OC4083): >32 µM
Minimal inhibitory concentration ([1]; Table 10, Pseudomonas aeruginosa PAO1): 32 µM
Minimal inhibitory concentration ([1]; Table 10, Pseudomonas aeruginosa PAO1 oprD): 32 µM
Hemoglobin release from hRBCs ([2]; 2 micromolar, 45-minute incubation (FIG. 17)): a low abundance of hemoglobin outside of the cells was detected
hRBC lysis ([2]; 2 to 8 μM (FIG. 15)): lysed hRBC when present at 4 or 8 μM
hRBC lysis with increasing concentration ([2]; LL-37 beyond 10 micromolar, B22a up to 60 micromolar (FIG. 18)): significantly higher hRBC lysis
Cytotoxicity, MTT assay [3]: no increased cytotoxicity compared to the controls
Minimal inhibitory concentration ([4]; E. cloacae 4092): >32 µg/mL
Minimal inhibitory concentration ([4]; Table 10, Enterobacter cloacae OC4080): 32 µM
Minimal inhibitory concentration ([4]; Table 10, Enterobacter cloacae OC4092): >32 µM
Minimal inhibitory concentration ([5]; E. coli 4075): >32 µg/mL
Minimal inhibitory concentration ([5]; E. coli J53 AzideR): >32 µg/mL
Minimal inhibitory concentration ([5]; E. coli MC4100): >32 µg/mL
Minimal inhibitory concentration ([5]; Table 10, Escherichia coli ATCC 25922): 32 µM
Minimal inhibitory concentration ([5]; Table 10, Escherichia coli ATCC 35218): 32 µM
Minimal inhibitory concentration ([5]; Table 10, Escherichia coli IU342): 32 µM
Minimal inhibitory concentration ([5]; Table 10, Escherichia coli J53 AzideR): >32 µM
Minimal inhibitory concentration ([5]; Table 10, Escherichia coli MC4100a): >32 µM
Minimal inhibitory concentration ([5]; Table 10, Escherichia coli OC4075): >32 µM
Minimal inhibitory concentration ([5]; Table 10, Escherichia coli UT189): >32 µM
Minimal inhibitory concentration ([6]; K. pneumoniae 4110): >32 µg/mL
Minimal inhibitory concentration ([6]; K. pneumoniae ATCC 700603): >32 µg/mL
Minimal inhibitory concentration ([6]; K. pneumoniae C2): >32 µg/mL
Minimal inhibitory concentration ([6]; K. pneumoniae OC8893): >32 µg/mL
Minimal inhibitory concentration ([6]; Table 10, Klebsiella pneumonia ATCC 700603): >32 µM
Minimal inhibitory concentration ([6]; Table 10, Klebsiella pneumonia C2): >32 µM
Minimal inhibitory concentration ([6]; Table 10, Klebsiella pneumonia OC4110): >32 µM
Minimal inhibitory concentration ([6]; Table 10, Klebsiella pneumonia OC8893): >32 µM
Minimal inhibitory concentration ([7]; S. marcescens 4101): >32 µg/mL
Minimal inhibitory concentration ([7]; S. marcescens 4104): >32 µg/mL
Minimal inhibitory concentration ([7]; S. marcescens 7553): >32 µg/mL
Minimal inhibitory concentration ([7]; Table 10, Serratia marcescens 4075A): >32 µM
Minimal inhibitory concentration ([7]; Table 10, Serratia marcescens 4101): >32 µM
Minimal inhibitory concentration ([7]; Table 10, Serratia marcescens 4104): >32 µM

MIC ([8]; Table 8, clinical isolate 88 (NDM1+)): > 16 µg/mL
MIC ([8]; Table 8, clinical isolate 92): > 16 µg/mL
MIC ([8]; Table 8, clinical isolate 109): > 16 µg/mL
MIC ([8]; Table 8, clinical isolate 113): > 16 µg/mL
MIC ([8]; Table 8, clinical isolate 116): > 16 µg/mL
MIC ([8]; Table 8, clinical isolate 118): > 16 µg/mL
MIC ([8]; Table 8, clinical isolate 136): > 16 µg/mL
MIC ([8]; Table 8, clinical isolate 170): > 32 µg/mL
MIC ([8]; Table 8, clinical isolate 256): 4 µg/mL (≈ 10.4 µM)
MIC ([8]; Table 8, clinical isolate 262 (NDM1+)): > 6 µg/mL
MIC ([8]; Table 8, clinical isolate 265): > 64 µg/mL
MIC ([8]; Table 8, clinical isolate 280): > 64 µg/mL
MIC ([8]; Table 8, clinical isolate 281): > 64 µg/mL
MIC ([8]; Table 8, clinical isolate 284): > 64 µg/mL
MIC ([8]; Table 8, clinical isolate 286): > 64 µg/mL
MIC ([8]; Table 8, clinical isolate 328): > 16 µg/mL
MIC ([8]; Table 8, clinical isolate 330): > 16 µg/mL
MIC ([8]; Table 8, clinical isolate 361): > 16 µg/mL
MIC ([8]; Table 8, clinical isolate 365): > 16 µg/mL
MIC ([8]; Table 8, clinical isolate 399): > 16 µg/mL
MIC ([8]; Table 11, clinical isolate 88 (NDM1+)): > 16 µg/mL
MIC ([8]; Table 11, clinical isolate 92): > 16 µg/mL
MIC ([8]; Table 11, clinical isolate 116): > 16 µg/mL
MIC ([8]; Table 11, clinical isolate 118): > 16 µg/mL
MIC ([8]; Table 11, clinical isolate 136): > 16 µg/mL
MIC ([8]; Table 11, clinical isolate 170): > 32 µg/mL
MIC ([8]; Table 11, clinical isolate 256): 4 µg/mL (≈ 10.4 µM)
MIC ([8]; Table 11, clinical isolate 262 (NDM1+)): ≥ 64 µg/mL
MIC ([8]; Table 11, clinical isolate 265): ≥ 64 µg/mL
MIC ([8]; Table 11, clinical isolate 280): ≥ 64 µg/mL
MIC ([8]; Table 11, clinical isolate 281): > 64 µg/mL
MIC ([8]; Table 11, clinical isolate 284): ≥ 64 µg/mL
MIC ([8]; Table 11, clinical isolate 286): ≥ 64 µg/mL
MIC ([8]; Table 11, clinical isolate 328): ≥ 16 µg/mL
MIC ([8]; Table 11, clinical isolate 330): ≥ 16 µg/mL
MIC ([8]; Table 11, clinical isolate 361): ≥ 16 µg/mL
MIC ([8]; Table 11, clinical isolate 365): ≥ 16 µg/mL
MIC ([8]; Table 11, clinical isolate 399): ≥ 16 µg/mL
MIC ([8]; Table 11, clinical isolate 110113): > 16 µg/mL
SMILES: C[C@@H](O)[C@H]1C(=O)N2C(C(=O)O)=C(S[C@@H]3CN[C@H](C(=O)N(C)C)C3)[C@H](C)[C@H]12 [Meropenem]
